Data published in patent US20170137458A1, “OXYSTEROLS FOR USE IN THE TREATMENT AND PREVENTION OF DISEASES CAUSED BY VIRUSES” (priority 2014, published 2017).

Experiments:
[1] = test system: TLR3; assay: Quantitative real time RT-PCR of TLR-3 in Caco2 cells; type: cell-based, human; settings: CaCo2 intestinal cells, 1.9 μM, 30 minutes to 6 hours
Experimental: The Caco2 cells were cultivated in DMEM medium containing 10% serum and seeded in 25 cm^2 flasks (8 million confluence cells). The next day the cells were treated, in DMEM medium containing 2% serum, with 1.9 μM 25OHC or 27OHC (dissolved in ethanol) for 30 minutes, 1, 2, 3, 4, 5 or 6 hours. Extraction of the total RNA was performed using the TRIzol Reagent (Applied Biosystems, Monza, Italy) and the quantity and purity (A260/A280 ratio) of the extracted RNA were spectrophotometrically measured. Subsequently, 2 μg of RNA were retrotranscribed using the High-Capacity cDNA Reverse Transcription Kit (Applied Biosystems). Quantitative RT-PCR was performed with 30 ng of cDNA using the “TaqMan Gene Expression Assay kits” for TLR-3 and β-actin, TaqMan Fast Universal PCR Master Mix, and 7500 Fast Real-Time PCR System (Applied Biosystems). For each gene considered, the threshold cycle (Ct) was determined and the results were normalized using β-actin as a reference gene. The relative quantification was performed using a mathematical method previously published (29). In FIGS. 1a-1b, the results are reported as increment of the genic expression (Fold change, Fc) of the treated samples with respect to the controls.

[2] = test system: HPV PsV (protein L1); assay: Assay for adhesion of the papillomavirus to the cell surface: Western blot analysis; type: cell-based, human papillomavirus; settings: Hela cells treated 16 hours, PsV 4 hours at 4° C.
Source text: L1 was detected using the murine monoclonal antibody (Ab30908, Abcam, Cambridge, UK) at a dilution of 1:2000, followed by secondary antibody IgG-HRP (Santa Cruz Biotechnology Inc.). The actin was detected using an anti-actin murine monoclonal antibody (MAB1501R, Millipore), followed by secondary antibody IgG-HRP (Santa Cruz Biotechnology Inc.).

[3] = test system: human rhinovirus 1A; assay: Rhinovirus yield reduction assay; settings: HeLa cells, 5.6 μM after infection, collected 5 days after the infection
Experimental: Each well was inoculated with 200 μl of a stock of human rhinovirus 1A containing approximately 30 PFU per well and incubated for 1 hour. […] The infected cells and the supernatants were collected 5 days after the infection (when a complete CPE was visible), and titred by means of the standard plaque method, as described above.

[4] = test system: human rhinovirus 1A; assay: Infectivity assay with rhinovirus (plaque count, HeLa cells)
Experimental: The human rhinovirus 1A (ATCC® VR-1559) was acquired from ATCC. The virus was propagated in HeLa cells, at 33° C. with 5% of CO2. When the cytopathic effect (CPE) had fully developed, cells and supernatants were collected, frozen and thawed three times, clarified and divided into aliquots. The viruses were kept at −70° C. The rhinovirus titres were determined by means of the standard plaque assay. In short, the HeLa cells were seeded 2 days prior to the infection in plates with 96 wells, reaching 60%-70% confluence at the time of the infection. The viral suspension was serially diluted in DMEM supplemented with 2% fetal bovine serum and inoculated; the infected wells were incubated at 33° C. for 1 hour, allowing the viruses to adhere and enter the cells. The cells were subsequently washed with medium and covered with a 1:1 mixture of 1.6% SeaPlaque agarose (BioWhittaker Molecular Applications) and DMEM 2X [26.76 g DMEM (Gibco BRL), 20 ml of L-glutamine (Gibco BRL), 4.4 g of sodium bicarbonate (Sigma, St. Louis, Mo.), FBS 40 ml (Sigma, St. Louis, Mo.) and 1000 ml of water]. The plates were incubated at 33° C. for 3 days. At the end of the incubation, the plates were fixed with 7.5% formaldehyde (Fluka) and coloured with crystal violet (Sigma, St. Louis, Mo.). The number of plaques formed was then counted; the virus titres were expressed in terms of plaque-forming units per ml (PFU/ml).
The HeLa cells, kept in DMEM supplemented with 10% FBS and 1% Zell Shield, were seeded (at 8×10^4 cells/well) in plates with 24 wells. The medium was removed and the cells were infected with 200 microlitres/well containing approximately 30 PFU of a stock of human rhinovirus 1A. The infected cells were incubated at 33° C. for 1 h, allowing the virus to adhere and enter the cells. […] The plates were incubated at 33° C. for 5 days. After the incubation, the plates were fixed with formaldehyde at 7.5% (Fluka), coloured with crystal violet (Sigma, St. Louis, Mo.) and the number of plaques formed was counted. The oxysterol concentration values able to determine 50% or 90% of the antiviral effect (EC50 and EC90 respectively) were calculated by means of regression analysis using the dose-response curves generated by the experimental data, using PRISM 5.00 (GraphPad Software, San Diego, Calif., USA).

[5] = test system: rotavirus; assay: Assay on adhesion of the rotavirus to the cell surface; type: cell-based; settings: MA104 cells, 5.6 μM for 20 hours, MOI 3
Experimental: For the assays on bonding of the rotavirus to the surface of MA104 cells, monolayers of confluent cells in plates with 24 wells were treated at 37° C. with 25- or 27-hydroxycholesterol at 1.9 μM and 5.6 μM for 20 hours. The cells were then washed and cooled on ice for 20 minutes. The infectivity of the virus was activated with 5 μg of porcine trypsin (Sigma)/ml for 30 minutes at 37° C. The activated virus, which had been cooled to 4° C., was left to adhere to the cells in ice for 1 hour at an MOI of 3. Lastly, the cells were washed with cold MEM; cold MEM was then added to the cells, which underwent two freezing-thawing cycles, in order to allow detachment of the viral particles bonded to the cell surface; the cell lysate was incubated at 37° C. for 30 minutes in the presence of […] of porcine trypsin/ml, subsequently clarified by means of centrifugation (1200 rpm, 10 minutes).
The titre of the virus population bound to the cells was determined by means of indirect immunocytochemistry performed on monolayers of MA104 cells infected with serial dilutions of the virus collected. The results are illustrated by FIG. 9; in the graph, the titre of the viral population bound to the surface of the treated cells is expressed in percentage terms with respect to the non-treated control and the error bars represent the standard deviation. […]

[6] = test system: adenovirus 5; settings: for example the adenovirus 5; cited from earlier work
[7] = pre-treatment assay, 20 hours prior to the infection

In the case of `C[C@H](CCCC(C)(C)O)[C@H]1CC[C@H]2[C@@H]3CC=C4C[C@@H](O)CC[C@]4(C)[C@H]3CC[C@]12C` [25OHC, 25-hydroxycholesterol], the TLR3 expression [1] is reported as “marked hyperexpression of TLR3”, the “adhesion of the PsV to the cell surface (L1 Western blot)” value [2] is reported as “not able to inhibit adhesion of the PsV to the cell surface” and the “production of viral progenies” value [3] is reported as “totally inhibit the production of viral progenies”. For the same compound, the EC50 ([4]; post-infection treatment assay) was 160 nM, the EC90 ([4]; post-infection treatment assay) was 410 nM and the EC50 [4, 7] was 290 nM. For the same compound, the EC90 [4, 7] was 540 nM, the “titre of the viral population bound to the cell surface” value [5] was “reduce in a statistically significant manner (p<0.05) the ability of the virus to adhere to the cell surface” and the “effectiveness on naked viruses” value [6] was “not effective on naked viruses”.
